The values below come from ChEMBL document CHEMBL5046318, “Development of 6-Methanesulfonyl-8-nitrobenzothiazinone Based Antitubercular Agents” (ACS Med Chem Lett, 2022).

For orientation: half-life means the time needed for the level to fall by half in the phase considered. One may read the MIC as the least concentration at which growth counts as inhibited. By IC50 is commonly meant the concentration needed to halve the response being measured.

≈ marks a conversion by molar mass, not a printed value.

Data set [1] is described as follows: Metabolic stability in human liver microsomes assessed as half life at 1 uM preincubated for 10 mins followed by NADPH addition and further incubated upto 60 mins by LC-MS/MS analysis. Type of data set: ADME, Microsome. As to conditions: time 70 min. For orientation: Microsomes from liver hold many membrane-bound enzymes, among them those of drug oxidation.
Data set [2] in a line: Metabolic stability in human liver microsomes assessed as intrinsic clearance at 1 uM preincubated for 10 mins followed by NADPH addition and further incubated upto 60 mins by LC-MS/MS analysis. Type of data set: ADME, Microsome. Particulars: time 70 min, read-out: CLH.
Data set [3] in a line: Metabolic stability in mouse liver microsomes assessed as intrinsic clearance at 1 uM preincubated for 10 mins followed by NADPH addition and further incubated upto 60 mins by LC-MS/MS analysis. Type of data set: ADME, Microsome. Particulars: time 70 min, read-out: CLH.
In data set [4] the test system is Mycobacterium tuberculosis. The data set can be described thus: Antitubercular activity against Mycobacterium tuberculosis H37Rv assessed as bacterial growth inhibition incubated for […] by MABA assay. Type of data set: functional.
Data set [5] is described as follows: Plasma protein binding in human. Type of data set: ADME, cell-free. As to conditions: read-out: PPB (converted).
The target of data set [6] is T1, Decaprenylphosphoryl-beta-D-ribose oxidase (Mycobacterium tuberculosis (strain ATCC 25618 / H37Rv), UniProt P9WJF1).
T1 sequence (P9WJF1 whole entry): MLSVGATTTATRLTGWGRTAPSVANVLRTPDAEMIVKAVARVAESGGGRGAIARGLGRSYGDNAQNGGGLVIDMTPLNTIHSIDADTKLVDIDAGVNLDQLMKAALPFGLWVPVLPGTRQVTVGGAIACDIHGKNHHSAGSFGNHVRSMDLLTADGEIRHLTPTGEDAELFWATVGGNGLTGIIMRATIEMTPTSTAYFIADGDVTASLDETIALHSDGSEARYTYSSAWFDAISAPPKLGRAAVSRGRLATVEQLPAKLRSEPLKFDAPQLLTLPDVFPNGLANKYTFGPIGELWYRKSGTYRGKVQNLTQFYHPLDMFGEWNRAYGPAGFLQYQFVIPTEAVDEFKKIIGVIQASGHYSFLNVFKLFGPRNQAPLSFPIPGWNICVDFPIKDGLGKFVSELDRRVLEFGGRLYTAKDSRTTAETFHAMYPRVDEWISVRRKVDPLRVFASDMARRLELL
The data set can be described thus: Inhibition of Mycobacterium tuberculosis H37Rv recombinant DprE1 expressed in Escherichia coli assessed as formation of resorufin using FPR as substrate by Amplex Red hydrogen/peroxidase coupled assay.

The nature of data set [7]: Metabolic stability in mouse liver microsomes assessed as half life at 1 uM preincubated for 10 mins followed by NADPH addition and further incubated upto 60 mins by LC-MS/MS analysis. Type of data set: ADME, Microsome. As to conditions: time 70 min.
Data set [8] is described as follows: Thermodynamic solubility of compound at pH 7.4 aqueous phosphate buffer. Particulars: read-out: Therm_solubility. Type of data set: physicochemical.

Take `CS(=O)(=O)c1cc([N+](=O)[O-])c2sc(N3CCN(CC4CCCCC4)CC3)nc(=O)c2c1`: the half-life at 1 µM was 28.8 min in data set [1] and 42.1 min in data set [7]. For the same molecule, the CLint scaled at 1 µM in data set [2] worked out at 60.5 mL/min/kg; in data set [3], 129 mL/min/kg. The MIC in data set [4] amounted to 0.01 µM (≈ 0.00467 µg/mL). Moreover, the fraction unbound in data set [5] is 0.025. The concentration for half-maximal inhibition (IC50) in data set [6] is 0.05 µM.
Turning to `CS(=O)(=O)c1cc([N+](=O)[O-])c2sc(N3CCN(CC4CCCCC4)C4(CC4)C3)nc(=O)c2c1`, the half-life at 1 µM in data set [1] worked out at 22.6 min; in data set [7] it was 33.5 min. Moreover, the CLint scaled at 1 µM amounted to 77 mL/min/kg in data set [2] and 163 mL/min/kg in data set [3]. In addition, in data set [4], the MIC was determined as 0.04 µM (≈ 0.0197 µg/mL). Further, the fraction unbound in data set [5] is 0.016. Moreover, the IC50 in data set [6] amounted to 3.9 µM. Also, the solubility thermodynamic in data set [8] was 0.7 µg/mL (≈ 1.42 µM).
For `CS(=O)(=O)c1cc([N+](=O)[O-])c2sc(N3CCN(S(=O)(=O)C4CC4)CC3)nc(=O)c2c1`, the MIC in data set [4] is 0.3 µM (≈ 0.142 µg/mL). Also, in data set [6], the IC50 is 7.1 µM.
`CS(=O)(=O)c1cc([N+](=O)[O-])c2sc(N3CCCN(S(=O)(=O)c4ccccc4)CC3)nc(=O)c2c1`: the MIC in data set [4] was over 3.5 µM.
For `CC(C)CN1CCCN(c2nc(=O)c3cc(S(C)(=O)=O)cc([N+](=O)[O-])c3s2)CC1`, the MIC in data set [4] amounted to 0.07 µM (≈ 0.0308 µg/mL). The IC50 in data set [6] is 1.3 µM.
For `CS(=O)(=O)c1cc([N+](=O)[O-])c2sc(N3CCN(Cc4cccs4)CC3)nc(=O)c2c1`, the MIC in data set [4] came to 0.25 µM (≈ 0.117 µg/mL).
Turning to `CS(=O)(=O)c1cc([N+](=O)[O-])c2sc(N3CCN(C(=O)c4ccccc4)CC3)nc(=O)c2c1`, in data set [4], the MIC is over 64 µM.
Turning to `CS(=O)(=O)c1cc([N+](=O)[O-])c2sc(N3CCN(CC4CCC(F)(F)CC4)CC3)nc(=O)c2c1`, the half-life at 1 µM is 38.6 min in data set [1] and 59 min in data set [7]. In addition, the CLint scaled at 1 µM in data set [2] is 45.1 mL/min/kg; in data set [3], 92.4 mL/min/kg. For the same molecule, the MIC in data set [4] was 0.03 µM (≈ 0.0151 µg/mL). In addition, the fraction unbound in data set [5] is 0.021. Further, the IC50 in data set [6] worked out at 1.1 µM. For the same molecule, in data set [8], the solubility thermodynamic was 0.81 µg/mL (≈ 1.61 µM).
`CS(=O)(=O)c1cc([N+](=O)[O-])c2sc(N3CCN(CC4CCOCC4)CC3)nc(=O)c2c1`: the MIC in data set [4] was found to be 0.51 µM (≈ 0.239 µg/mL). The concentration for half-maximal inhibition (IC50) in data set [6] was 10.3 µM.
With `CS(=O)(=O)c1cc([N+](=O)[O-])c2sc(N3CCN(CC4CCC(C(F)(F)F)CC4)CC3)nc(=O)c2c1` (configuration not stated), in data set [4], the MIC was found to be 1.87 µM (≈ 1 µg/mL).
Consider `CS(=O)(=O)c1cc([N+](=O)[O-])c2sc(N3CCCN(S(=O)(=O)C4CC4)CC3)nc(=O)c2c1`, for which the MIC in data set [4] was determined as 0.94 µM (≈ 0.459 µg/mL). Further, the IC50 in data set [6] was determined as 16.7 µM.
With `CC(C)CCN1CCCN(c2nc(=O)c3cc(S(C)(=O)=O)cc([N+](=O)[O-])c3s2)CC1`, the minimum inhibitory concentration (MIC) in data set [4] was 0.49 µM (≈ 0.223 µg/mL).
The same measure, in the same setting: with `CS(=O)(=O)c1cc([N+](=O)[O-])c2sc(N3CCN(CC4CCSCC4)CC3)nc(=O)c2c1` the figure was 0.1 µM (≈ 0.0485 µg/mL).
Consider `CS(=O)(=O)c1cc([N+](=O)[O-])c2sc(N3CCCN(CC4CCCCC4)CC3)nc(=O)c2c1`, for which the MIC in data set [4] came to 0.07 µM (≈ 0.0336 µg/mL). In addition, the IC50 in data set [6] amounted to 1.1 µM.
`CS(=O)(=O)c1cc([N+](=O)[O-])c2sc(N3CCCN(CC4CCCC4)CC3)nc(=O)c2c1`: the MIC in data set [4] worked out at 0.15 µM (≈ 0.07 µg/mL). For the same molecule, the IC50 in data set [6] stood at 4.4 µM.
`CS(=O)(=O)c1cc([N+](=O)[O-])c2sc(N3CCN(CC4CCCCC4)C(=O)C3)nc(=O)c2c1`: in data set [4], the MIC was determined as 0.07 µM (≈ 0.0336 µg/mL).
As for `CCS(=O)(=O)N1CCCN(c2nc(=O)c3cc(S(C)(=O)=O)cc([N+](=O)[O-])c3s2)CC1`, the MIC in data set [4] is over 2 µM.
`CS(=O)(=O)c1cc([N+](=O)[O-])c2sc(N3CCN(C(=O)C4CCCCC4)CC3)nc(=O)c2c1`: the MIC in data set [4] was determined as 0.96 µM (≈ 0.461 µg/mL).
As to `CCCCS(=O)(=O)N1CCN(c2nc(=O)c3cc(S(C)(=O)=O)cc([N+](=O)[O-])c3s2)CC1`, the MIC in data set [4] stood at 0.09 µM (≈ 0.0442 µg/mL). For the same molecule, the IC50 in data set [6] was found to be 1.4 µM.
Regarding `CS(=O)(=O)c1cc([N+](=O)[O-])c2sc(N3CCCN(S(=O)(=O)c4cccs4)CC3)nc(=O)c2c1`, the MIC in data set [4] was over 3.5 µM.
On to `CS(=O)(=O)c1cc([N+](=O)[O-])c2sc(N3CCN(Cc4ccccc4)CC3)nc(=O)c2c1`, for which the MIC in data set [4] is 0.21 µM (≈ 0.0967 µg/mL).
Take `CS(=O)(=O)c1cc([N+](=O)[O-])c2sc(N3CCN(S(=O)(=O)c4cccs4)CC3)nc(=O)c2c1`: the MIC in data set [4] is 108 µM (≈ 55.8 µg/mL).
With `CS(=O)(=O)c1cc([N+](=O)[O-])c2sc(N3CCN(S(=O)(=O)c4ccccc4)CC3)nc(=O)c2c1`, the MIC in data set [4] was found to be 0.33 µM (≈ 0.168 µg/mL).
For `CC(C)CN1CCN(c2nc(=O)c3cc(S(C)(=O)=O)cc([N+](=O)[O-])c3s2)CC12CC2`, the MIC in data set [4] was determined as 0.17 µM (≈ 0.0769 µg/mL).
As for `CCS(=O)(=O)N1CCN(c2nc(=O)c3cc(S(C)(=O)=O)cc([N+](=O)[O-])c3s2)CC1`, the MIC in data set [4] was determined as 0.26 µM (≈ 0.12 µg/mL). In data set [6], the IC50 is 6.7 µM.
In the case of `CCCCS(=O)(=O)N1CCCN(c2nc(=O)c3cc(S(C)(=O)=O)cc([N+](=O)[O-])c3s2)CC1`, the MIC in data set [4] is over 2 µM.
Consider `CS(=O)(=O)c1cc([N+](=O)[O-])c2sc(N3CCCN(Cc4ccccc4)CC3)nc(=O)c2c1`, for which the MIC in data set [4] is 0.48 µM (≈ 0.228 µg/mL).
As for `CCCCCN1CCCN(c2nc(=O)c3cc(S(C)(=O)=O)cc([N+](=O)[O-])c3s2)CC1`, the MIC in data set [4] was 0.49 µM (≈ 0.223 µg/mL).
On to `O=c1nc(N2CCN(CC3CCCCC3)CC2)sc2c([N+](=O)[O-])cc(C(F)(F)F)cc12` [MACOZINONE], for which the figures for the half-life at 1 µM in data set [1] and in data set [7] were 62.1 min and 31.5 min, respectively. Besides, the CLint scaled at 1 µM is 28.1 mL/min/kg in data set [2] and 174 mL/min/kg in data set [3]. In data set [5], the fraction unbound was under 0.001. The solubility thermodynamic in data set [8] is under 0.01 µg/mL.
